Activity calls are given as the source filed them. No cut-off for these calls is given here.
molecular target: RAC-alpha serine/threonine-protein kinase (Rattus norvegicus) (UniProt P47196); assay: Increase in Akt phosphorylation in glutamate-induced rat PC12 cells at 10 to 40 uM measured after 24 hrs by Western blot analysis
Sequence (P47196 whole entry): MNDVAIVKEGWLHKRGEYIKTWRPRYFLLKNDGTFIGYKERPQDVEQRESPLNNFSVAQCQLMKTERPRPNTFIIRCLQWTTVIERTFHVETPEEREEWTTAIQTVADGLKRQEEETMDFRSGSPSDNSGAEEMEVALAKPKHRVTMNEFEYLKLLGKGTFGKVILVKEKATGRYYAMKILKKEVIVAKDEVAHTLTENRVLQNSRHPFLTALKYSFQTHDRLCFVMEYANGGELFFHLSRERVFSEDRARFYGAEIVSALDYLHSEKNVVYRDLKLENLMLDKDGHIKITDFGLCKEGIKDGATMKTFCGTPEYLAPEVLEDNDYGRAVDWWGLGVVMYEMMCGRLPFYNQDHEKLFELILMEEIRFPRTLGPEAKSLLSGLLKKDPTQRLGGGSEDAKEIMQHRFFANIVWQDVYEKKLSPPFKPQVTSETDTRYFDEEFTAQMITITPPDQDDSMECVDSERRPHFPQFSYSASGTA

SMILES | Activity
CC(=O)OC[C@@H]1[C@H]2C[C@H]2[C@]2(C)C=C3OC(=O)C(CO)=C3C[C@@H]12 | Active

test system: PC-12; assay: Neuroprotective activity against glutamate-induced apoptotic cell death in rat PC12 cells assessed as apoptotic neurons at 10 to 40 uM pretreated with compound followed by glutamate challenge measured after 24 hrs by Hoechst 33258 staining based assay (reference value: 65.5%); type: functional

SMILES | Activity
CC(=O)OC[C@@H]1[C@H]2C[C@H]2[C@]2(C)C=C3OC(=O)C(CO)=C3C[C@@H]12 | 7.2 - 23.7%

test system: PC-12; assay: Neuroprotective activity against glutamate-induced neuronal cell death in rat PC12 cells assessed as increase in cell viability pretreated for 2 hrs followed by glutamate challenge measured after 24 hrs by MTT assay; type: functional, cell-based

SMILES | Activity | EC50 [µM]
CC1=C2C(=O)c3c(C)coc3C(=O)[C@@]2(C)[C@@H](O)CC1 | inactive | –
CC1=C2C[C@@]3(C)[C@H](C[C@H]2OC1=O)C(=O)CC[C@@H]3C | inactive | –
CC1=C2C(=O)[C@@](O)(C(C)C)CC[C@]2(C)CCC1 | inactive | –
C=C(C)[C@@H]1CC[C@]2(C)C(=C(C)C(=O)C[C@H]2O)C1 | inactive | –
CC1=C(C[C@@H]2OC(=O)[C@@H](C)CC/C=C\2C)C(=O)OC1 | inactive | –
Cc1coc2c1C[C@@H]1[C@](C)(CCC[C@@]1(C)O)C2 | inactive | –
C=C[C@]1(C)C[C@@H]2OC(=O)C(C)=C2C[C@H]1C(=C)C [ISOGERMAFURENOLIDE] | – | 24.3
COCCOC(=O)C1=C(C)NC(C)=C(C(=O)OC(C)C)C1c1cccc([N+](=O)[O-])c1 (centres undefined) [NIMODIPINE] | – | 97.3
Cc1coc2c1C(=O)[C@H]1[C@](C)(C2=O)[C@@H](O)CC[C@@]1(C)O | inactive | –
CC1=C2C[C@@H]3[C@@](C)(C=C2OC1=O)CCC[C@@]3(C)O | inactive | –
CC1=C2C[C@@H]3[C@](C)(CCC[C@]3(C)O)C[C@]2(O)OC1=O | inactive | –
CC(=O)OC[C@@H]1[C@H]2C[C@H]2[C@]2(C)C=C3OC(=O)C(C)=C3C[C@@H]12 | inactive | –
Cc1coc2c1C(=O)[C@H]1[C@@](C)(O)CCC(=O)[C@]1(C)C2 | inactive | –
CC1=C2C(=O)c3c(C)coc3[C@@H](O)[C@]2(C)[C@@H](O)CC1 | inactive | –
CC1=C2C(=O)c3c(C)coc3C[C@@]2(C)C=CC1=O | – | 106
Cc1coc2c1C(=O)[C@@H]1[C@@](C)(C2)[C@H](O)CC[C@@]1(C)O | inactive | –
C=C1[C@H](O)CC[C@@]2(C)C[C@@]3(O)OC(=O)C(C)=C3C[C@H]12 | inactive | –
CC1=C2C[C@@]3(C)[C@H](C[C@@]2(O)OC1=O)C(=O)CC[C@@H]3C | inactive | –
C=C1[C@H]2C[C@H]2[C@]2(COC(C)=O)C[C@@H]3OC(=O)C(C)=C3C[C@@H]12 | – | 89.5
C=C1CCC[C@]2(C)C[C@]3(O)OC(=O)C(C)=C3C[C@@H]12 [ATRACTYLENOLIDE III] | inactive | 36.3
CC(=O)OC[C@@H]1[C@H]2C[C@H]2[C@]2(C)C=C3OC(=O)C(CO)=C3C[C@@H]12 | – | 3.3
CC(=O)CCc1c(C)ccc2c1C(=O)OC2(C)C | – | 93.1
Cc1coc2c1C(=O)[C@H]1O[C@]1(C)CC[C@@H](O)[C@](C)(O)C2 | – | 70.3
Cc1coc2c1C(=O)[C@@H]1[C@@](C)(C2)C(=O)CC[C@@]1(C)O | – | 107
Cc1coc2c1C(=O)[C@H]1[C@@H](C)CC[C@H](O)[C@]1(C)C2=O | – | 51.4
C=C1CCC[C@]2(C)C=C3OC(=O)C(C)=C3[C@H](O)[C@@H]12 | inactive | –
C=C1CCC[C@]2(C)C(=O)c3occ(C)c3C[C@@H]12 | – | 119
C=C1CCC[C@]2(C)C=C3OC(=O)C(C)=C3C[C@@H]12 | inactive | –
CC1=C2C(=O)[C@@](O)(C(C)C)CC[C@@]2(C)CCC1=O | – | 132
C=C1CC[C@@H]2C(=C)C[C@@]3(O)OC(=O)C(C)=C3[C@@]2(O)C1 | – | 15.2

test system: PC-12; assay: Neuroprotective activity against glutamate-induced apoptotic cell death in rat PC12 cells assessed as decrease in caspase-3 level at 10 to 40 uM measured after 24 hrs; type: functional, cell-based

SMILES | Activity
CC(=O)OC[C@@H]1[C@H]2C[C@H]2[C@]2(C)C=C3OC(=O)C(CO)=C3C[C@@H]12 | Active
